Like-named read-outs stand apart in the source and are kept apart here. Where a SMILES comes first, the peptide text is derived from it. [ ]: non-standard residue; d: D form. Dolaproine = CO[C@@H]([C@@H]1CCCN1)[C@@H](C)C(=O)O; Dil = CC[C@H](C)[C@H](NC)[C@@H](CC(=O)O)OC; NMeV = CN[C@H](C(=O)O)C(C)C

Common to all, as to assay: Cytotoxicity in vitro (cell proliferation inhibition, SRB dye)
What all share (format): cell-based, human
In general terms: In SRB staining, fixed cells bind dye roughly in proportion to their protein.

The subject of data set [1] is SK-BR3 (HER2 positive). The settings on record: SK-BR3 breast cancer cells. The procedure:
(§1) The cell proliferation inhibitory activity of the drug and ADCs presented in the following Table 2 on cancer cell lines was measured. As the cancer cell lines, commercially available human breast cancer cell lines MCF-7 (HER2 negative to normal), SK-BR3 (HER2 positive), and JIMT-1 (HER2 positive) were used. MMAF-OMe was used as the drug and the ADCs in Table 1 were used as the ADC. Each of the cancer cell lines was seeded in a 96-well plate by from 5,000 to 13,000 per well for the 72 hour treatment group and from 1,500 to 3,000 per well for the 168 hour treatment group, incubated for 24 hours, and then treated with antibodies and ADCs at a concentration of from 0.0051 to 33.33 nM or from 0.0015 to 10.0 nM (three times serial dilutions) and drugs at a concentration of from 0.023 to 50 nM (three times serial dilutions). After 72/168 hours, the number of living cells was quantified using SRB (Sulforhodamine B) dye.

The subject of data set [2] is JIMT-1 (HER2 positive). The conditions noted are these: JIMT-1 breast cancer cells. As to the method: as §1
Data set [3] relates to MCF-7 (HER2 negative to normal). The conditions noted are these: MCF7 breast cancer cells. The procedure: as §1

A word on the CC50: it is the concentration at which the toxic effect on the cells reaches its halfway point. As for `CC[C@H](C)[C@@H]([C@@H](CC(=O)N1CCC[C@H]1[C@H](OC)[C@@H](C)C(=O)N[C@@H](Cc1ccccc1)C(=O)OC)OC)N(C)C(=O)[C@@H](NC(=O)[C@@H](NC)C(C)C)C(C)C` [MMAF-OMe] (H-[NMeV]V[Dil][Dolaproine]F-OMe), the CC50 in data set [1] (72 hr treatment, read-out: CC50 (nM) SK-BR3 72 hr) was found to be 0.14 nM; in data set [1] (168 hr treatment, read-out: CC50 (nM) SK-BR3 168 hr), 0.06 nM; in data set [2] (72 hr treatment, read-out: CC50 (nM) JIMT-1 72 hr), 0.14 nM; in data set [2] (168 hr treatment, read-out: CC50 (nM) JIMT-1 168 hr) it was 0.06 nM; in data set [3] (72 hr treatment, read-out: CC50 (nM) MCF7 72 hr) it was 0.84 nM; in data set [3] (168 hr treatment, read-out: CC50 (nM) MCF7 168 hr) it was 0.19 nM.

(Values after patent publication US12398124B2, “Pyrrolobenzodiazepine dimer prodrug and ligand-linker conjugate compound of the same” (priority 2017, dated 2025).)
